{"source": "the supplement of paper PMC10883282", "assay_in_all_cases": "relative viability vs DMSO control (72 h) (fraction); higher = more viable cells", "key": {"[1]": {"system": "G401", "procedure,_shortened": "(§1)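 Relative viability is percent growth read by ATPLite and averaged over up to triplicate wells. Sarcoma cells were seeded in 384-well plates to reach 80–90% confluence and given 2.5 µl of serially diluted compound after 24 h, from source plates of 10 mM to 0.0002 mM. Incubation lasted 72 h at 37 °C, 5% CO2, with 0.1% DMSO vehicle and a 5 µM positive control, and the data were rescaled so 1 equals full and 0 equals none.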"}, "[2]": {"system": "HT1080", "procedure,_shortened": "as §1"}, "[3]": {"system": "KHOS-240S", "procedure,_shortened": "as §1"}, "[4]": {"system": "MES-SA", "procedure,_shortened": "as §1"}, "[5]": {"system": "RD-ES", "procedure,_shortened": "as §1"}, "[6]": {"system": "RD", "procedure,_shortened": "as §1"}}, "note": "± gives the standard deviation of the averaged measurements.", "data": [{"smiles": "COC(=O)c1ccc2c(c1)NC(=O)/C2=C(\\Nc1ccc(N(C)C(=O)CN2CCN(C)CC2)cc1)c1ccccc1", "note": "[Nintedanib]", "values": [{"measurement": "relative viability", "setting": "[1]; 0.00017 µM", "result": "1 ± 0.037"}, {"measurement": "relative viability", "setting": "[1]; 0.00051 µM", "result": "0.99 ± 0.044"}, {"measurement": "relative viability", "setting": "[1]; 0.00152 µM", "result": "0.992 ± 0.029"}, {"measurement": "relative viability", "setting": "[1]; 0.00457 µM", "result": "1.03 ± 0.047"}, {"measurement": "relative viability", "setting": "[1]; 0.01372 µM", "result": "0.98 ± 0.025"}, {"measurement": "relative viability", "setting": "[1]; 0.04115 µM", "result": "0.987 ± 0.031"}, {"measurement": "relative viability", "setting": "[1]; 0.1235 µM", "result": "0.977 ± 0.027"}, {"measurement": "relative viability", "setting": "[1]; 0.3704 µM", "result": "0.891 ± 0.025"}, {"measurement": "relative viability", "setting": "[1]; 1.111 µM", "result": "0.721 ± 0.02"}, {"measurement": "relative viability", "setting": "[1]; 3.333 µM", "result": "0.485 ± 0.026"}, {"measurement": "relative viability", "setting": "[1]; 10 µM", "result": "0.0535 ± 0.03"}, {"measurement": "relative viability", "setting": "[2]; 0.00017 µM", "result": "1.05 ± 0.014"}, {"measurement": "relative viability", "setting": "[2]; 0.00051 µM", "result": "1.08 ± 0.021"}, {"measurement": "relative viability", "setting": "[2]; 0.00152 µM", "result": "1.06 ± 0.033"}, {"measurement": "relative viability", "setting": "[2]; 0.00457 µM", "result": "1.06 ± 0.025"}, {"measurement": "relative viability", "setting": "[2]; 0.01372 µM", "result": "1.069 ± 0.0059"}, {"measurement": "relative viability", "setting": "[2]; 0.04115 µM", "result": "1.07 ± 0.041"}, {"measurement": "relative viability", "setting": "[2]; 0.1235 µM", "result": "1.06 ± 0.037"}, {"measurement": "relative viability", "setting": "[2]; 0.3704 µM", "result": "1.06 ± 0.042"}, {"measurement": "relative viability", "setting": "[2]; 1.111 µM", "result": "1.07 ± 0.017"}, {"measurement": "relative viability", "setting": "[2]; 3.333 µM", "result": "1.01 ± 0.058"}, {"measurement": "relative viability", "setting": "[2]; 10 µM", "result": "0.084 ± 0.0068"}, {"measurement": "relative viability", "setting": "[3]; 0.00017 µM", "result": "1.05 ± 0.021"}, {"measurement": "relative viability", "setting": "[3]; 0.00051 µM", "result": "1.05 ± 0.013"}, {"measurement": "relative viability", "setting": "[3]; 0.00152 µM", "result": "1.04 ± 0.0094"}, {"measurement": "relative viability", "setting": "[3]; 0.00457 µM", "result": "1.04 ± 0.037"}, {"measurement": "relative viability", "setting": "[3]; 0.01372 µM", "result": "1.04 ± 0.02"}, {"measurement": "relative viability", "setting": "[3]; 0.04115 µM", "result": "1.02 ± 0.034"}, {"measurement": "relative viability", "setting": "[3]; 0.1235 µM", "result": "0.985 ± 0.031"}, {"measurement": "relative viability", "setting": "[3]; 0.3704 µM", "result": "0.875 ± 0.03"}, {"measurement": "relative viability", "setting": "[3]; 1.111 µM", "result": "0.702 ± 0.0087"}, {"measurement": "relative viability", "setting": "[3]; 3.333 µM", "result": "0.6 ± 0.073"}, {"measurement": "relative viability", "setting": "[3]; 10 µM", "result": "0.101 ± 0.0032"}, {"measurement": "relative viability", "setting": "[4]; 0.00017 µM", "result": "0.933 ± 0.031"}, {"measurement": "relative viability", "setting": "[4]; 0.00051 µM", "result": "0.93 ± 0.02"}, {"measurement": "relative viability", "setting": "[4]; 0.00152 µM", "result": "0.942 ± 0.041"}, {"measurement": "relative viability", "setting": "[4]; 0.00457 µM", "result": "0.928 ± 0.021"}, {"measurement": "relative viability", "setting": "[4]; 0.01372 µM", "result": "0.898 ± 0.063"}, {"measurement": "relative viability", "setting": "[4]; 0.04115 µM", "result": "0.944 ± 0.013"}, {"measurement": "relative viability", "setting": "[4]; 0.1235 µM", "result": "0.934 ± 0.034"}, {"measurement": "relative viability", "setting": "[4]; 0.3704 µM", "result": "0.958 ± 0.019"}, {"measurement": "relative viability", "setting": "[4]; 1.111 µM", "result": "0.92 ± 0.025"}, {"measurement": "relative viability", "setting": "[4]; 3.333 µM", "result": "0.804 ± 0.032"}, {"measurement": "relative viability", "setting": "[4]; 10 µM", "result": "0.583 ± 0.029"}, {"measurement": "relative viability", "setting": "[5]; 0.00017 µM", "result": "0.955 ± 0.014"}, {"measurement": "relative viability", "setting": "[5]; 0.00051 µM", "result": "0.96 ± 0.048"}, {"measurement": "relative viability", "setting": "[5]; 0.00152 µM", "result": "0.944 ± 0.021"}, {"measurement": "relative viability", "setting": "[5]; 0.00457 µM", "result": "0.958 ± 0.028"}, {"measurement": "relative viability", "setting": "[5]; 0.01372 µM", "result": "0.945 ± 0.036"}, {"measurement": "relative viability", "setting": "[5]; 0.04115 µM", "result": "0.927 ± 0.083"}, {"measurement": "relative viability", "setting": "[5]; 0.1235 µM", "result": "0.806 ± 0.071"}, {"measurement": "relative viability", "setting": "[5]; 0.3704 µM", "result": "0.73 ± 0.034"}, {"measurement": "relative viability", "setting": "[5]; 1.111 µM", "result": "0.706 ± 0.039"}, {"measurement": "relative viability", "setting": "[5]; 3.333 µM", "result": "0.667 ± 0.19"}, {"measurement": "relative viability", "setting": "[5]; 10 µM", "result": "0.203 ± 0.047"}, {"measurement": "relative viability", "setting": "[6]; 0.00017 µM", "result": "1.03 ± 0.021"}, {"measurement": "relative viability", "setting": "[6]; 0.00051 µM", "result": "1.03 ± 0.031"}, {"measurement": "relative viability", "setting": "[6]; 0.00152 µM", "result": "0.989 ± 0.052"}, {"measurement": "relative viability", "setting": "[6]; 0.00457 µM", "result": "1.01 ± 0.018"}, {"measurement": "relative viability", "setting": "[6]; 0.01372 µM", "result": "0.977 ± 0.05"}, {"measurement": "relative viability", "setting": "[6]; 0.04115 µM", "result": "0.97 ± 0.053"}, {"measurement": "relative viability", "setting": "[6]; 0.1235 µM", "result": "0.96 ± 0.03"}, {"measurement": "relative viability", "setting": "[6]; 0.3704 µM", "result": "0.965 ± 0.053"}, {"measurement": "relative viability", "setting": "[6]; 1.111 µM", "result": "0.873 ± 0.036"}, {"measurement": "relative viability", "setting": "[6]; 3.333 µM", "result": "0.777 ± 0.021"}, {"measurement": "relative viability", "setting": "[6]; 10 µM", "result": "0.0216 ± 0.001"}]}]}
